Legend:
[1] = Appearance of ibuprofen mixtures in PEG 400 with sodium or potassium hydroxide (visual inspection); type: physicochemical
Experimental: Mixtures were prepared in 10 g quantities by dispersing the acidic pharmaceutical agent in polyethylene glycol or polyethylene glycol and glycerin or polyethylene glycol and polyvinylpyrrolidone or polyethylene glycol, glycerin, and polyvinylpyrrolidone. Aqueous solutions of hydroxide were then added.

[2] = Solubility of the basic drug thioridazine in PEG 400 in presence and absence of hydrogen ion

Row | SMILES | Appearance (Room temp) ([1]; 200 mg in 200 mg PEG 400, NaOH 0.1 M/E, water 1.5 wt %, slight ppt) | Appearance (Room temp) ([1]; 200 mg in 200 mg PEG 400, NaOH 0.2 M/E, water 2.8 wt %) | Appearance (Room temp) ([1]; 200 mg in 200 mg PEG 400, NaOH 0.3 M/E, water 4.1 wt %) | Appearance (Room temp) ([1]; 200 mg in 200 mg PEG 400, NaOH 0.4 M/E, water 5.2 wt %) | Appearance (Room temp) ([1]; 200 mg in 200 mg PEG 400, NaOH 0.5 M/E, water 6.6 wt %, solid admixture) | precipitation in presence of sodium hydroxide ([1]; PEG 400, 0.5 or more mole equivalents NaOH) | precipitation in presence of potassium hydroxide ([1]; PEG 400, 1.0 mole equivalents KOH, even at 4° C.) | RESULT at 5° C. ([2]; FORMULA I, Hydrochloric Acid 0.0 mg) | RESULT at 5° C. ([2]; FORMULA II, Hydrochloric Acid 2.4 mg)
1 | CC(C)Cc1ccc(C(C)C(=O)O)cc1 (stereo not drawn) [Ibuprofen, ibuprofen] | Insoluble | Soluble | Soluble | Soluble | Insoluble | precipitation occurs | no precipitation occurs | – | –
2 | CSc1ccc2c(c1)N(CCC1CCCCN1C)c1ccccc1S2 (stereo not drawn) [Thioridazine, thioridazine] | – | – | – | – | – | – | – | INSOLUBLE | SOLUBLE
